Measured values: patent publication US20240058312A1, “METHODS AND MATERIALS FOR TREATING BONE LOSS” (The Penn State Research Foundation, priority 2021, published 2024)

Assays:
[1] = system: C57BL/6J mice with sciatic nerve, biceps femoris and quadriceps femoris muscle crush injury; assay: DEXA scanning of tibial bone after sciatic nerve and muscle crush injury; format: in vivo; settings: 40 μg/mouse/day IP for 21 days
Description: Ten-week-old male C57BL/6J mice (Jackson Laboratories, Bar Harbor, Maine) weighing 25±3 g were used. Sciatic nerve crush injury was performed with muscle crush injury as described elsewhere (Govindappa et al., Int. Immunopharmacol., 82:106330 (2020)). Briefly, after intraperitoneal (IP) ketamine (100 mg/kg)/xylazine (10 mg/kg) anesthesia, the right hindlimb was shaved and prepared with alcohol swabs and povidone-iodine (Betadine). Using a stereo zoom binocular microscope, a lateral skin incision (˜3 cm) was made along the length of the femur and the sciatic nerve (SN) was bluntly exposed through the iliotibial band. Nerve crush injury was performed ˜3 mm proximal to the SN trifurcation and muscle crush injury was performed at the center of Biceps femoris (BF) and Quadriceps femoris (QF) muscle using calibrated forceps (5 mm tip width; 18-1107, Miltex Instruments) for 30 seconds (nerve) and 60 seconds (muscles), respectively. Uninjured contralateral normal limbs were kept without injury as controls. The skin was closed using surgical staples and post-operative slow-release buprenorphine (0.05 mg/kg) was given subcutaneously to all animals as an analgesic. […]
The data were analyzed using one-way and two-way analysis of variance (ANOVA) using GraphPad Prism Version 8.2.0. […]

[2] = system: C57BL/6J mice with sciatic nerve, biceps femoris and quadriceps femoris muscle crush injury; assay: micro-CT of tibial bone microarchitecture after sciatic nerve and muscle crush injury; format: in vivo; settings: tibial metaphysis, 40 μg/mouse/day IP for 21 days, vs. saline
Description: Ten-week-old male C57BL/6J mice (Jackson Laboratories, Bar Harbor, Maine) weighing 25±3 g were used. Sciatic nerve crush injury was performed with muscle crush injury as described elsewhere (Govindappa et al., Int. Immunopharmacol., 82:106330 (2020)). Briefly, after intraperitoneal (IP) ketamine (100 mg/kg)/xylazine (10 mg/kg) anesthesia, the right hindlimb was shaved and prepared with alcohol swabs and povidone-iodine (Betadine). Using a stereo zoom binocular microscope, a lateral skin incision (˜3 cm) was made along the length of the femur and the sciatic nerve (SN) was bluntly exposed through the iliotibial band. Nerve crush injury was performed ˜3 mm proximal to the SN trifurcation and muscle crush injury was performed at the center of Biceps femoris (BF) and Quadriceps femoris (QF) muscle using calibrated forceps (5 mm tip width; 18-1107, Miltex Instruments) for 30 seconds (nerve) and 60 seconds (muscles), respectively. Uninjured contralateral normal limbs were kept without injury as controls. The skin was closed using surgical staples and post-operative slow-release buprenorphine (0.05 mg/kg) was given subcutaneously to all animals as an analgesic.
The experimental animals (6 animals/group) were randomized to normal saline (0.1 mL/mouse) and 4-AP (40 μg/mouse) treatment groups. 4-AP was given by IP injection immediately after surgery and daily for 21 days. Animals were euthanized using isoflurane on post-injury day 22 to harvest hindlimbs. Harvested hindlimbs were subjected to dual-energy X-ray absorptiometry (DEXA) and microcomputed tomography (micro-CT) scanning to analyze the bone quality.
The data were analyzed using one-way and two-way analysis of variance (ANOVA) using GraphPad Prism Version 8.2.0. All values are presented as mean±SEM. Probability (P) values of <0.05 were considered statistically significant.

In the case of `Nc1ccncc1` [4-AP, 4-aminopyridine], the tibial bone volume ([1]; combined nerve and muscle crush injury, P<0.05 vs. saline, FIG. 1A) is reported as “significantly improves”, the “BMD (bone mineral density) of tibial bone” value ([1]; nerve and muscle injury associated tibial bone, mean, P<0.05 vs. saline (76.57)) is reported as 79.75 mg/cm^2 and the bone volume fraction [2] is reported as “upregulating”. The “structural model index (SMI)” value [2] was “downregulated”, the trabecular separation [2] was “downregulated” and the trabecular thickness [2] was “upregulating”.
